According to US7241799B2, “Cannabimimetic indole derivatives” (University of Connecticut, priority 1999, dated 2007):
Where two headings read alike, the source gives them in different places.

How the values were obtained:
CB1 receptor = biological target: T1, CB1 receptor (Rattus norvegicus, UniProt P20272); assay: CB1 receptor binding, [3H] CP-55,940 displacement, rat forebrain membranes; settings: for Ki: rat forebrain membranes, 0.8 nM [3H] CP-55,940, read-out: Kl CB1; for selectivity for the CB1 receptor: binding selectivity CB1 versus CB2, from the results in the TABLES
T1 construct: membranes were prepared from rat forebrain membranes; from tissue; host or cells: rat forebrain
T1 sequence (P20272 whole entry): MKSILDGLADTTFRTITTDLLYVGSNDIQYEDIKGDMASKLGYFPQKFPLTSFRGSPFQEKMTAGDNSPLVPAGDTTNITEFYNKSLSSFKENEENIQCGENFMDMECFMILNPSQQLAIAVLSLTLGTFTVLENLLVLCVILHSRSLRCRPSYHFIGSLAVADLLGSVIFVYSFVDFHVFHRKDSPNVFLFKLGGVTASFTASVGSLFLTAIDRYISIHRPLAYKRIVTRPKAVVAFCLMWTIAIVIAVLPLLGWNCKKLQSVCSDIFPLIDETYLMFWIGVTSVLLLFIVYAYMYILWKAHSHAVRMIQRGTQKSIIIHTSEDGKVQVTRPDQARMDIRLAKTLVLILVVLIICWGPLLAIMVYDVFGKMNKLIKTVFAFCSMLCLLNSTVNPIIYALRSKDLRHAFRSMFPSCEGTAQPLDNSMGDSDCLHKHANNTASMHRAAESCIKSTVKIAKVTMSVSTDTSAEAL
Method: (§1) The materials were tested for CB2 receptor binding affinity and for CB1 receptor affinity (to determine selectivity for the CB2 receptor). As used herein, “binding affinity” is represented by the IC50 value which is the concentration of an analog required to occupy the 50% of the total number (Bmax) of the receptors. The lower the IC50 value the higher the binding affinity.
For the CB1 receptor binding studies, membranes were prepared from rat forebrain membranes according to the procedure of P. R. Dodd et al, A Rapid Method for Preparing Synaptosomes: Comparison with Alternative Procedures, Brain Res., 107–118 (1981). The binding of the novel analogues to the CB1 cannabinoid receptor was assessed as described in W. A. Devane et al, Determination and Characterization of a Cannabinoid Receptor in a Rat Brain, Mol. Pharmacol., 34, 605–613 (1988) and A. Charalambous et al, 5′-azido Δ^8 THC: A Novel Photoaffinity Label for the Cannabinoid Receptor, J. Med. Chem., 35, 3076–3079 (1992) with the following changes. The above articles are incorporated by reference herein.
Membranes, previously frozen at −80° C., were thawed on ice. To the stirred suspension was added three volumes of TME (25 mM Tris-HCl buffer, 5 mM MgCl2 and 1 mM EDTA) at a pH 7.4. The suspension was incubated at 4° C. for 30 min. At the end of the incubation, the membranes were pelleted and washed three times with TME.
(§2) The treated membranes were subsequently used in the binding assay described below. Approximately 30 μg of membranes were incubated in silanized 96-well microtiter plate with TME containing 0.1% essentially fatty acid-free bovine serum albumin (BSA), 0.8 nM [^3H] CP-55,940, and various concentrations of test materials at […] for 1 hour. The samples were filtered using Packard Filtermate 196 and Whatman GF/C filterplates and washed with wash buffer (TME) containing 0.5% BSA. Radioactivity was detected using MicroScint 20 scintillation cocktail added directly to the dried filterplates, and the filterplates were counted using a Packard Instruments Top-Count. Nonspecific binding was assessed using 100 nM CP-55,940. Data collected from three independent experiments performed with duplicate determinations was normalized between 100% and 0% specific binding for [^3H] CP-55,940, determined using buffer and 100 nM CP-55,940. The normalized data was analyzed using a 4-parameter nonlinear logistic equation to yield IC50 values. Data from at least two independent experiments performed in duplicate was used to calculate IC50 values which were converted to Ki values using the assumptions of Cheng et al, Relationship Between the Inhibition Constant (Ki) and the concentration of Inhibitor which causes 50% Inhibition (IC50) of an Enzymatic Reaction, Biochem. Pharmacol., 22, 3099–3102, (1973), which is incorporated by reference herein.

CB2 receptor = biological target: T2, CB2 receptor (Mus musculus, UniProt P47936); assay: CB2 receptor binding, [3H] CP-55,940 displacement, mouse spleen membranes; settings: for Ki: mouse spleen membranes, [3H] CP-55,940, read-out: Kl CB2 (converted); for selectivity for the CB2 receptor: binding selectivity CB2 versus CB1, from the results in the TABLES
T2 construct: membranes were prepared from frozen mouse spleen; from tissue; host or cells: mouse spleen
T2 sequence (P47936 whole entry): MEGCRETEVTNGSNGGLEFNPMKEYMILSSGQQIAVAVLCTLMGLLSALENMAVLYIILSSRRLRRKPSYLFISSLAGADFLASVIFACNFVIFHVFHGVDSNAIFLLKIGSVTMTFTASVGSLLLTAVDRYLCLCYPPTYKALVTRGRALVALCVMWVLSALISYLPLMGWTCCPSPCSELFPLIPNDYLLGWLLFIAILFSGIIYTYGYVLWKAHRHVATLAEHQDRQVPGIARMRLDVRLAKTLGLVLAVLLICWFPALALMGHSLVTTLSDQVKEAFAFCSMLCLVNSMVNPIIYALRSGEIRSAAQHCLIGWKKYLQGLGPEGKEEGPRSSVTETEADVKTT
Method: as §1, §2
For the CB2 receptor binding studies, membranes were prepared from frozen mouse spleen essentially according to the procedure of P. R. Dodd et al, A Rapid Method for Preparing Synaptosomes: Comparison with Alternative Procedures, Brain Res., 226, 107–118 (1981) which is incorporated by reference herein. Silanized centrifuge tubes were used throughout to minimize receptor loss due to adsorption. The CB2 binding assay was conducted in the same manner as for the CB1 binding assay. The binding affinities (Ki) were also expressed in nanomoles (nM).

| SMILES | Ki (CB1 receptor; TABLE 1, racemic samples) | Ki (CB2 receptor; TABLE 1, racemic samples) | Ki (CB1 receptor; TABLE 2) | Ki (CB2 receptor; TABLE 2) | other results |
| --- | --- | --- | --- | --- | --- |
| Cc1c(C(=O)c2ccccc2I)c2ccc([N+](=O)[O-])cc2n1CC1CCCCN1C (racemic) [AM664] | 40 nM | 80 nM | – | – | – |
| Cc1c(C(=O)c2ccccc2I)c2ccc(N)cc2n1CC1CCCCN1C (racemic) [AM665] | 206 nM | 20.3 nM | – | – | – |
| Cc1c(C(=O)c2ccccc2)c2ccc(N=[N+]=[N-])cc2n1CC1CCCCN1C (racemic) [AM671] | 155 nM | 59.1 nM | – | – | – |
| Cc1c(C(=O)c2ccccc2)c2ccc(N=C=S)cc2n1CC1CCCCN1C (racemic) [AM684] | 181 nM | 44.8 nM | – | – | – |
| Cc1c(C(=O)c2ccccc2I)c2ccc(N=[N+]=[N-])cc2n1CC1CCCCN1C (racemic) [AM1215] | 40.7 nM | 21.9 nM | – | – | – |
| Cc1c(C(=O)c2ccccc2I)c2ccc(N=C=S)cc2n1CC1CCCCN1C (racemic) [AM1216] | 210 nM | 25.2 nM | – | – | – |
| CN1CCCCC1Cn1cc(C(=O)c2cccc3ccccc23)c2ccc(N=C=S)cc21 (racemic) [AM1217] | 255 nM | 81.5 nM | – | – | – |
| CN1CCCCC1Cn1cc(C(=O)c2cccc3ccccc23)c2ccc([N+](=O)[O-])cc21 (racemic) [AM1218] | 11.2 nM | 3.98 nM | – | – | – |
| CN1CCCCC1Cn1cc(C(=O)c2cccc3ccccc23)c2ccc(N)cc21 (racemic) [AM1219] | 96.6 nM | 31.3 nM | – | – | – |
| CN1CCCCC1Cn1cc(C(=O)c2cccc3ccccc23)c2ccc(N=[N+]=[N-])cc21 (racemic) [AM1224] | 20.2 nM | 0.73 nM | – | – | – |
| Cc1c(C(=O)c2cccc3ccccc23)c2ccc(N)cc2n1CC1CCCCN1C (racemic) [AM1225] | 440 nM | 38.5 nM | – | – | – |
| Cc1c(C(=O)c2cccc3ccccc23)c2ccc(N=[N+]=[N-])cc2n1CC1CCCCN1C (racemic) [AM1231] | 31.2 nM | 34.2 nM | – | – | – |
| CN1CCCCC1Cn1cc(C(=O)c2cc3ccc4cccc5ccc(c2)c3c45)c2ccccc21 (racemic) [AM1253] | 60.3 nM | 126 nM | – | – | – |
| CN1CCCCC1Cn1cc(C(=O)c2cc(N=[N+]=[N-])ccc2I)c2ccc(N=[N+]=[N-])cc21 (racemic) [AM2209] | 48.8 nM | 41.8 nM | – | – | – |
| CN1CCCCC1Cn1cc(C(=O)c2ccc(I)c3ccccc23)c2ccc(N=[N+]=[N-])cc21 (racemic) [AM2212] | 31 nM | 2.9 nM | – | – | – |
| CN1CCCCC1Cn1cc(C(=O)c2ccc(N=C=S)c3ccccc23)c2ccc(N=C=S)cc21 (racemic) [AM2215] | 235 nM | 99.6 nM | – | – | – |
| CN1CCCCC1Cn1cc(C(=O)c2cc(N=C=S)ccc2I)c2ccc(N=C=S)cc21 (racemic) [AM2223] | 64.8 nM | 29.9 nM | – | – | – |
| CCCCCn1c(C)c(C(=O)c2ccccc2I)c2ccccc21 [AM669] | – | – | 47.2 nM | 38.6 nM | – |
| CCCCCCCn1c(C)c(C(=O)c2ccccc2I)c2ccccc21 [AM672] | – | – | 1600 nM | 1510 nM | – |
| CCCCCn1cc(C(=O)c2ccccc2I)c2ccccc21 [AM679] | – | – | 13.5 nM | 49.5 nM | – |
| CCCCCCn1c(C)c(C(=O)c2ccccc2I)c2ccccc21 [AM682] | – | – | 332 nM | 693 nM | – |
| CCCCn1c(C)c(C(=O)c2ccccc2I)c2ccccc21 [AM683] | – | – | 272 nM | 281 nM | – |
| CC(=O)OCCCCCn1c(C)c(C(=O)c2ccccc2I)c2ccccc21 [AM689] | – | – | 2280 nM | 1020 nM | – |
| Cc1c(C(=O)c2ccccc2I)c2ccccc2n1CCCCCO [AM690] | – | – | 4850 nM | 1970 nM | – |
| CC(=O)OCCCCCn1cc(C(=O)c2ccccc2I)c2ccccc21 [AM692] | – | – | 2660 nM | 1520 nM | – |
| O=C(c1ccccc1I)c1cn(CCCCCO)c2ccccc12 [AM693] | – | – | 835 nM | 526 nM | – |

| SMILES | Ki (CB1 receptor; TABLE 1, racemic samples) | Ki (CB2 receptor; TABLE 1, racemic samples) | Ki (CB1 receptor; TABLE 2) | Ki (CB2 receptor; TABLE 2) | other results |
| --- | --- | --- | --- | --- | --- |
| O=C(c1ccccc1I)c1cn(CCCCCF)c2ccccc12 [AM694] | – | – | 0.08 nM | 1.44 nM | selectivity for the CB1 receptor (CB1 receptor): high selectivity for the CB1 receptor |
| Cc1ccc(S(=O)(=O)OCCCCCn2cc(C(=O)c3ccccc3I)c3ccccc32)cc1 [AM697] | – | – | 1310 nM | 1120 nM | – |
| O=C(c1ccccc1I)c1cn(CCCCCI)c2ccccc12 [AM698] | – | – | 136 nM | 315 nM | – |
| O=C(c1ccccc1I)c1cn(CCCCCN=C=S)c2ccccc12 [AM1201] | – | – | 106 nM | 110 nM | – |
| CCCCCn1cc(C(=O)c2cc([N+](=O)[O-])ccc2I)c2ccccc21 [AM1202] | – | – | 98.9 nM | 22.9 nM | – |
| CCCCCn1cc(C(=O)c2cc(N)ccc2I)c2ccccc21 [AM1203] | – | – | 63.6 nM | 88.9 nM | – |
| CCCCCn1cc(C(=O)c2cc(N=C=S)ccc2I)c2ccccc21 [AM1204] | – | – | 5660 nM | 3350 nM | – |
| CCCCCn1cc(C(=O)c2cc(N=[N+]=[N-])ccc2I)c2ccccc21 [AM1205] | – | – | 117 nM | 196 nM | – |
| CCCCCn1cc(C(=O)c2cc(I)ccc2I)c2ccccc21 [AM1206] | – | – | 105 nM | 150 nM | – |
| CN1CCCCC1Cn1cc(C(=O)c2cccc3ccccc23)c2ccccc21 (stereo not shown) [AM1220] | 3.88 nM | 73.4 nM | – | – | – |
| Cc1c(C(=O)c2cccc3ccccc23)c2ccc([N+](=O)[O-])cc2n1CC1CCCCN1C (stereo not shown) [AM1221] | 52.3 nM | 0.28 nM | – | – | – |
| CC(=O)OCCCCCn1cc(C(=O)c2cccc3ccccc23)c2ccc([N+](=O)[O-])cc21 [AM1233] | – | – | 142 nM | 154 nM | – |
| O=C(c1cccc2ccccc12)c1cn(CCCCCO)c2cc([N+](=O)[O-])ccc12 [AM1234] | – | – | 77.6 nM | 197 nM | – |
| O=C(c1cccc2ccccc12)c1cn(CCCCCF)c2cc([N+](=O)[O-])ccc12 [AM1235] | – | – | 1.5 nM | 20.4 nM | selectivity for the CB1 receptor (CB1 receptor): high selectivity for the CB1 receptor |
| CC(=O)OCCCCCn1cc(C(=O)c2cccc3ccccc23)c2ccc(N)cc21 [AM1236] | – | – | 1130 nM | 559 nM | – |
| Nc1ccc2c(C(=O)c3cccc4ccccc34)cn(CCCCCO)c2c1 [AM1237] | – | – | 837 nM | 244 nM | selectivity for the CB2 receptor (CB2 receptor): high selectivity for the CB2 receptor |
| O=C(c1cccc2ccccc12)c1cn(CCCCCO)c2cc(I)ccc12 [AM1238] | – | – | 3.1 nM | 17.3 nM | – |
| CN1CCCCC1Cn1cc(C(=O)C23CC4CC(CC(C4)C2)C3)c2ccccc21 (stereo not shown) [AM1248] | 100 nM | 332 nM | – | – | – |
| CCCCCn1c(C)c(C(=O)c2ccc(N(C)C)c3ccccc23)c2ccccc21 [AM1256] | – | – | 4.74 nM | 18.6 nM | – |
| CC(=O)OCCCCn1cc(C(=O)c2cccc3ccccc23)c2ccccc21 [AM1282] | – | – | 133 nM | 101 nM | – |
| O=C(c1cccc2ccccc12)c1cn(CCCCO)c2ccccc12 [AM1283] | – | – | 117 nM | 196 nM | – |
| CC(=O)OCCCn1cc(C(=O)c2cccc3ccccc23)c2ccccc21 [AM1284] | – | – | 127 nM | 103 nM | – |
| Cc1ccc(S(=O)(=O)OCCCCn2cc(C(=O)c3cccc4ccccc34)c3ccccc32)cc1 [AM1286] | – | – | 1510 nM | 1290 nM | – |
| O=C(c1cccc2ccccc12)c1cn(CCCCI)c2ccccc12 [AM1288] | – | – | 1.3 nM | 10.5 nM | selectivity for the CB1 receptor (CB1 receptor): high selectivity for the CB1 receptor |
| Cc1ccc(S(=O)(=O)OCCCn2cc(C(=O)c3cccc4ccccc34)c3ccccc32)cc1 [AM1289] | – | – | 360 nM | 78.6 nM | selectivity for the CB2 receptor (CB2 receptor): high selectivity for the CB2 receptor |
| O=C(c1cccc2ccccc12)c1cn(CCCCN=C=S)c2ccccc12 [AM1291] | – | – | 2960 nM | 1800 nM | – |
